Measurements published in patent publication US20260258035A1, “FIVE-MEMBERED AND SIX-MEMBERED NITROGEN-CONTAINING COMPOUND, AND INTERMEDIATE, PREPARATION METHOD AND USE THEREOF” (HANGZHOU SYNRX THERAPEUTICS BIOMEDICAL TECHNOLOGY CO., LTD., priority 2022, published 2026).
Where two headings read alike, the source gives them in different places.

Tests used:
[1] = system: HCC1806; experiment: Cell viability assay (CellTiter-Glo); type: cell-based, Human; settings: read-out: IC50 (nM) in cell viability assay
[2] = target: PARG (Homo sapiens, UniProt Q86W56); experiment: Biochemical assay (PARG, TFMU-ADPr substrate)
Chain of PARG (Q86W56 whole entry): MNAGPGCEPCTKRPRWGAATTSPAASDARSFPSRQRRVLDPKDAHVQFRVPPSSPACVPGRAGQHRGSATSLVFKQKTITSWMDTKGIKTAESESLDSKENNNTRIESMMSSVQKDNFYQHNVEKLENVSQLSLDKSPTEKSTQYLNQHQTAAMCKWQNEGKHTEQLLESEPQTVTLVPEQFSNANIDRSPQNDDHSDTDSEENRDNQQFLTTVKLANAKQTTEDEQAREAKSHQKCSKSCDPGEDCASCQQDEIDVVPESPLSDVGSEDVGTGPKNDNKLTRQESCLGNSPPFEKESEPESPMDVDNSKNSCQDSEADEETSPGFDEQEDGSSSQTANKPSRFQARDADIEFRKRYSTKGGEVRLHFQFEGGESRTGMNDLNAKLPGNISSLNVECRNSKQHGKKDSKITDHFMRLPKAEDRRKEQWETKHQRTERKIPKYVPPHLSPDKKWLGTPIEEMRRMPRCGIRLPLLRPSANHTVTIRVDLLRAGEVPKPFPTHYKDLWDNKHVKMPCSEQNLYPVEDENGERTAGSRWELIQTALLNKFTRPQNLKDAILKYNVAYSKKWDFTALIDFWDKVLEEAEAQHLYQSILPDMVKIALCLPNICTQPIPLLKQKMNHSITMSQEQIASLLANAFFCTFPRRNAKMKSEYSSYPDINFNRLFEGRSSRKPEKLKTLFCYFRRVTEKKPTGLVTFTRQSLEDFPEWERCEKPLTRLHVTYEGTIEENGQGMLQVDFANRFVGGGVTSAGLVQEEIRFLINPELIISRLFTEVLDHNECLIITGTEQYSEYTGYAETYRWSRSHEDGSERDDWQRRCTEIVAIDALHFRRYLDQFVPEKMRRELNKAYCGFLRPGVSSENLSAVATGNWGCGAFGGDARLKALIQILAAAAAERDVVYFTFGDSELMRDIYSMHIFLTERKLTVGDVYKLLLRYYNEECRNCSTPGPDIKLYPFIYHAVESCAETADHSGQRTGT

[3] = Homo sapiens, HCC1806, 168 h, HCC1806, 7 days, CellTiter-Glo
[4] = 4 nM PARG, 66.2 uM TFMU-ADPr, 3 min at room temperature

Row | SMILES | IC50 [1, 3] [nM] | IC50 ([2]; PARG, TFMU-ADPr substrate) [nM] | IC50 ([1]; HCC1806, 7 days, CellTiter-Glo) [nM] | IC50 [2, 4] [nM] | IC50 ([1]; Homo sapiens, HCC1806, 168 h) [nM]
1 | CC1(NS(=O)(=O)c2cc(N3CCN(C(=O)C4(O)CC4)CC3)c3cnc(-c4nnc(C(F)(F)F)s4)n3c2)CC1 [Example 291, 8-(4-(1-hydroxycyclopropane-1-carbonyl)piperazin-1-yl)-N-(1-methylcyclopropyl)-3-(5-(trifluoromethyl)-1,3,4-thiadiazol-2-yl)imidazo[1,5-a]pyridine-6-sulfonamide] | 65 | 9.55 | – | – | –
2 | COC1(CN2CCN(c3cc(S(=O)(=O)NC4(C)CC4)cn4c(-c5nnc(C(F)F)s5)ncc34)CC2)CC1 [Example 350, 3-(5-(difluoromethyl)-1,3,4-thiadiazol-2-yl)-8-(4-((1-methoxycyclopropyl)methyl)piperazin-1-yl)-N-(1-methylcyclopropyl)imidazo[1,5-a]pyridine-6-sulfonamide] | 713 | 20 | – | – | –
3 | N#CC1(NS(=O)(=O)c2cc(N3CCN(C(=O)[C@H]4CCCO4)CC3)c3cnc(-c4nnc(C(F)(F)F)s4)n3c2)CC1 [Example 303, (R)-N-(1-cyanocyclopropyl)-8-(4-(tetrahydrofuran-2-carbonyl)piperazin-1-yl)-3-(5-(trifluoromethyl)-1,3,4-thiadiazol-2-yl)imidazo[1,5-a]pyridine-6-sulfonamide] | 435 | 20.9 | – | – | –
4 | Cc1ncn(CC(=O)N2CCN(c3cc(S(=O)(=O)NC4(C)CC4)cn4c(-c5nnc(C(F)(F)F)s5)ncc34)CC2)n1 [Example 334, 8-(4-(2-(3-methyl-1H-1,2,4-triazol-1-yl)acetyl)piperazin-1-yl)-N-(1-methylcyclopropyl)-3-(5-(trifluoromethyl)-1,3,4-thiadiazol-2-yl)imidazo[1,5-a]pyridine-6-sulfonamide] | 354 | 6.31 | – | – | –
5 | N#CC1(NS(=O)(=O)c2cc(N3CCN(C(=O)C4COC4)CC3)c3cnc(-c4nnc(C(F)(F)F)s4)n3c2)CC1 [Example 226, N-(1-cyanocyclopropyl)-8-(4-(oxetane-3-carbonyl)piperazin-1-yl)-3-(5-(trifluoromethyl)-1,3,4-thiadiazol-2-yl)imidazo[1,5-a]pyridine-6-sulfonamide] | 4850 | 26.3 | – | – | –
6 | COC(C)C(=O)N1CCN(c2cc(S(=O)(=O)NC3(C#N)CC3)cn3c(-c4nnc(C(F)(F)F)s4)ncc23)CC1 (centres unmarked) [Example 260, N-(1-cyanocyclopropyl)-8-(4-(2-methoxypropanoyl)piperazin-1-yl)-3-(5-(trifluoromethyl)-1,3,4-thiadiazol-2-yl)imidazo[1,5-a]pyridine-6-sulfonamide] | 250 | 28.8 | – | – | –
7 | CC1(NS(=O)(=O)c2cc(N3CCN(C(=O)c4ccncc4)CC3)c3cnc(-c4nnc(C(F)F)s4)n3c2)CC1 [Example 338, 3-(5-(difluoromethyl)-1,3,4-thiadiazol-2-yl)-8-(4-isonicotinoylpiperazin-1-yl)-N-(1-methylcyclopropyl)imidazo[1,5-a]pyridine-6-sulfonamide] | 50 | 0.48 | – | – | –
8 | CN(C)C(=O)N1CC2(CC=C(c3nc(-c4nnc(C(F)F)s4)n4cc(S(=O)(=O)NC5(C#N)CC5)ccc34)C2)C1 [Example 25, 6-(6-(N-(1-cyanocyclopropyl)sulfamoyl)-3-(5-(difluoromethyl)-1,3,4-thiadiazol-2-yl)imidazo[1,5-a]pyridin-1-yl)-N,N-dimethyl-2-azaspiro[3.4]oct-6-ene-2-carboxamide] | < 500 | 4.84 | 490 | < 100 | –
9 | CC(C)C(=O)N1CCN(c2cc(S(=O)(=O)NC3CC3)cn3c(-c4nnc(C(F)(F)F)s4)nc(C#N)c23)CC1 [Example 166, 1-cyano-N-cyclopropyl-8-(4-isobutyrylpiperazin-1-yl)-3-(5-(trifluoromethyl)-1,3,4-thiadiazol-2-yl)imidazo[1,5-a]pyridine-6-sulfonamide] | 882 | 13.2 | – | – | –
10 | CC1(NS(=O)(=O)c2cc(N3CCOCC3)c3cnc(-c4nnc(C(F)F)s4)n3c2)CC1 [Example 347, 3-(5-(difluoromethyl)-1,3,4-thiadiazol-2-yl)-N-(1-methylcyclopropyl)-8-morpholinoimidazo[1,5-a]pyridine-6-sulfonamide] | 282 | 4.64 | – | – | –
11 | [2H]c1nc(-c2nnc(C(F)F)s2)n2cc(S(=O)(=O)NC3(C)COC3)cc(N3CCNC(COC)C3)c12 (centres unmarked) [Example 158, 3-(5-(difluoromethyl)-1,3,4-thiadiazol-2-yl)-8-(3-(methoxymethyl)piperazin-1-yl)-N-(3-methyloxetan-3-yl)imidazo[1,5-a]pyridine-6-sulfonamide-1-d] | 1090 | 15.8 | – | – | –
12 | CN(C)C(=O)N1CCN(c2cc(S(=O)(=O)NC3(C)COC3)cn3c(-c4nnc(C(F)F)s4)nc(Cl)c23)CC1 [Example 128, 4-(1-chloro-3-(5-(difluoromethyl)-1,3,4-thiadiazol-2-yl)-6-(N-(3-methyloxetan-3-yl)sulfamoyl)imidazo[1,5-a]pyridin-8-yl)-N,N-dimethylpiperazine-1-carboxamide] | 28 | 0.99 | – | – | –
13 | COC[C@H]1CN(c2cc(S(=O)(=O)NC3(C)COC3)cn3c(-c4nnc(C(F)F)s4)ncc23)C[C@H](C)N1 [Example 404, 3-(5-(difluoromethyl)-1,3,4-thiadiazol-2-yl)-8-((3R,5S)-3-(methoxymethyl)-5-methylpiperazin-1-yl)-N-(3-methyloxetan-3-yl)imidazo[1,5-a]pyridine-6-sulfonamide] | 27 | 1.09 | – | – | –
14 | CC1(NS(=O)(=O)c2cc(N3CCN(C(=O)c4ncc[nH]4)CC3)c3cnc(-c4nnc(C(F)F)s4)n3c2)CC1 [Example 339, 8-(4-(1H-imidazole-2-carbonyl)piperazin-1-yl)-3-(5-(difluoromethyl)-1,3,4-thiadiazol-2-yl)-N-(1-methylcyclopropyl)imidazo[1,5-a]pyridine-6-sulfonamide] | 226 | 3.16 | – | – | –
15 | Cc1nc(-c2nnc(C(F)(F)F)s2)n2cc(S(=O)(=O)NC3(C)CC3)cc(N3CCN(C(=O)[C@H]4CCN4C)CC3)c12 [Example 171, (R)-1-methyl-8-(4-(1-methylazetidine-2-carbonyl)piperazin-1-yl)-N-(1-methylcyclopropyl)-3-(5-(trifluoromethyl)-1,3,4-thiadiazol-2-yl)imidazo[1,5-a]pyridine-6-sulfonamide] | 32 | 0.71 | – | – | –
16 | CN(C)CCOC1(C(=O)N2CCN(c3cc(S(=O)(=O)NC4(C)CC4)cn4c(-c5nnc(C(F)(F)F)s5)ncc34)CC2)CC1 [Example 384, 8-(4-(1-(2-(dimethylamino)ethoxy)cyclopropane-1-carbonyl)piperazin-1-yl)-N-(1-methylcyclopropyl)-3-(5-(trifluoromethyl)-1,3,4-thiadiazol-2-yl)imidazo[1,5-a]pyridine-6-sulfonamide] | 17.6 | < 0.15 | – | – | –
17 | N#CC1(NS(=O)(=O)c2cc(N3CCN(C(=O)[C@H]4CCNC4)CC3)c3cnc(-c4nnc(C(F)(F)F)s4)n3c2)CC1 [Example 272, (S)-N-(1-cyanocyclopropyl)-8-(4-(pyrrolidine-3-carbonyl)piperazin-1-yl)-3-(5-(trifluoromethyl)-1,3,4-thiadiazol-2-yl)imidazo[1,5-a]pyridine-6-sulfonamide] | 5410 | 7.24 | – | – | –
18 | CN(C)CCN(C)C(=O)N1CCN(c2cc(S(=O)(=O)NC3(C)COC3)cn3c(-c4nnc(C(F)(F)F)s4)ncc23)CC1 [Example 185, N-(2-(dimethylamino)ethyl)-N-methyl-4-(6-(N-(3-methyloxetan-3-yl)sulfamoyl)-3-(5-(trifluoromethyl)-1,3,4-thiadiazol-2-yl)imidazo[1,5-a]pyridin-8-yl)piperazine-1-carboxamide] | 797 | 4.58 | – | – | –
19 | CN(C)CCCOC1(C(=O)N2CCN(c3cc(S(=O)(=O)NC4(C)CC4)cn4c(-c5nnc(C(F)(F)F)s5)ncc34)CC2)CC1 [Example 385, 8-(4-(1-(3-(dimethylamino)propoxy)cyclopropane-1-carbonyl)piperazin-1-yl)-N-(1-methylcyclopropyl)-3-(5-(trifluoromethyl)-1,3,4-thiadiazol-2-yl)imidazo[1,5-a]pyridine-6-sulfonamide] | – | 0.48 | – | – | 40
20 | [2H]C([2H])([2H])OC1(C(=O)N2CCN(c3cc(S(=O)(=O)NC4(C)COC4)cn4c(-c5nnc(C(F)(F)F)s5)nc(Cl)c34)CC2)CC1 [Example 129, 1-chloro-8-(4-(1-(methoxy-d3)cyclopropane-1-carbonyl)piperazin-1-yl)-N-(3-methyloxetan-3-yl)-3-(5-(trifluoromethyl)-1,3,4-thiadiazol-2-yl)imidazo[1,5-a]pyridine-6-sulfonamide] | 12.7 | 0.16 | – | – | –
21 | COC1(C(=O)N2CCN(c3c(F)c(S(=O)(=O)NC4(C)CC4)cn4c(-c5nnc(C(F)F)s5)ncc34)CC2)CC1 [Example 198, 3-(5-(difluoromethyl)-1,3,4-thiadiazol-2-yl)-7-fluoro-8-(4-(1-methoxycyclopropane-1-carbonyl)piperazin-1-yl)-N-(1-methylcyclopropyl)imidazo[1,5-a]pyridine-6-sulfonamide] | 27.8 | 0.66 | – | – | –
22 | CC(C)C(=O)N1CCN(c2cc(S(=O)(=O)N[C@H]3C[C@H]3F)cn3c(-c4nnc(C(F)F)s4)ncc23)CC1 [Example 82, 3-(5-(difluoromethyl)-1,3,4-thiadiazol-2-yl)-N-((1S,2R)-2-fluorocyclopropyl)-8-(4-isobutyrylpiperazin-1-yl)imidazo[1,5-a]pyridine-6-sulfonamide] | 5000 to 30000 | 209 | 7050 | 100 to 500 | –
23 | N#CC1(NS(=O)(=O)c2cc(N3CCN(C(=O)c4ccno4)CC3)c3cnc(-c4nnc(C(F)(F)F)s4)n3c2)CC1 [Example 255, N-(1-cyanocyclopropyl)-8-(4-(isoxazole-5-carbonyl)piperazin-1-yl)-3-(5-(trifluoromethyl)-1,3,4-thiadiazol-2-yl)imidazo[1,5-a]pyridine-6-sulfonamide] | 420 | 17.4 | – | – | –
